What follows are molecules tested on Escherichia coli (α) (assay: Screening of secretion efficiency, alkaline phosphatase expressing strain). Details: surfactant 1 wt %; 37° C., 1 hour; ELISA, anti-His-tag antibody.
Format: cell-based
From the text: An alkaline phosphatase (phoA) gene of an Escherichia coli strain W3110 was amplified by the PCR method using primers 1 and 2 (Table 4). After being treated with restriction enzymes NdeI and BamHI, a PCR fragment was bound with an NdeI restriction enzyme site and with a BamHI restriction enzyme site of a pET-22b plasmid (product of Novagen). Then, the plasmid was transformed into an AG1 (DE3) Escherichia coli strain formed by transforming an Escherichia coli strain AG1 (product of TOYOBO Co., LTD.) with use of a λDE3 Lysogenization Kit (product of Novagen). In this manner, an alkaline phosphatase expressing strain (a) was formed.
A pdxA gene of an Escherichia coli strain W3110 was amplified by the PCR method using primers 5 and 6 (Table 4). After being treated with restriction enzymes NdeI and BamHI, a PCR fragment was bound to an NdeI restriction enzyme site and a BamHI restriction enzyme site of a pET-22b plasmid (product of Novagen). Then, the plasmid was transformed into an AG1 (DE3) Escherichia coli strain to form a PdxA expressing strain (γ).
In this manner, culture solutions were prepared.
(2) The strains were collected using a centrifuge (4,000 G, 4° C., 15 minutes). Each of the collected Escherichia coli strains was resuspended in 1 mL of a TB culture solution (product of Difco) and chloramphenicol (30 mg/L) and IPTG (100 μM) were added thereto. Shake culture at 37° C. for 3 hours induced expression of phoA, torA, and pdxA.
(3) Subsequently, harvesting using a centrifuge was carried out again (4,000 G, 4° C., 15 minutes). Each of the collected Escherichia coli strains was resuspended in 2.5 mL of a Tris-NaCl buffer solution (50 mM Tris (pH 7.5), 100 mM NaCl). The resulting solution was divided into 25-μL portions at a time to be mixed with 25 μL of a Tris-NaCl buffer solution.
(4) Then, the solution was allowed to stand at 37° C. for 1 hour. The supernatant solution was collected and diluted in a Tris-NaCl buffer solution to a proper concentration. Here, the quantification of the recombinant protein in the resulting solution was carried out by ELISA assay with use of an anti-His-tag antibody. The sample prior to the centrifugation in the process (3) was treated with ultrasonic waves (200 W, 10 minutes) and the quantification of the recombinant protein therein was similarly carried out by ELISA assay with use of an anti-His-tag antibody. The ratio of lysed bacteria was obtained with use of Escherichia coli (γ), and the secretion efficiencies of the recombinant proteins of Escherichia coli (α) and (β) were calculated by using the following formula. […] Secretion efficiency (%)=100×{(X/Y)−Z}.
In the formula, “X” represents the amount of the recombinant protein in the culture solution after removal of bacterial cells by centrifugation in the case of using Escherichia coli (α) or (β).
“Y” represents the amount of the whole recombinant protein in the culture solution in the case of using Escherichia coli (α) or (β).
“Z” represents the ratio of lysed bacteria obtained with use of Escherichia coli (γ), which is determined by the following formula: Z=Z1/Z2.
In the formula, “Z1” represents the amount of the recombinant protein in the culture solution which remains after removal of bacterial cells by centrifugation in the case of using Escherichia coli (γ).
“Z2” represents the amount of the whole recombinant protein in the culture solution in the case of using Escherichia coli (γ).
Escherichia coli (α) and (β) were each cultured in the same manner as in the above case except that polyoxyethylene (3 mol) tridecyl ether sodium acetate as the surfactant (A) was added right after the resuspension of the Escherichia coli in the buffer solution in the process (3) of A-0, in an amount of 1% by weight on the basis of the weight of the suspension of the bacterium. The secretion efficiency was calculated according to the above-mentioned definition.
For “Didecyl dimethyl ammonium adipate [A-42]”, the “Secretion efficiency (%) Escherichia coli (α)” value was 4.3%. “polyoxyethylene-p-isooctyl phenol [A-16]” was tested, and the “Secretion efficiency (%) Escherichia coli (α)” value was 36.7%. With CCCCCCCCCC[N+](C)(C)CCCCCCCCCC.[Cl-] [A-20, Didecyl dimethylammonium chloride] the “Secretion efficiency (%) Escherichia coli (α)” value was 28.7%. With “Polyethylene glycol diisostearate [A-38]” the “Secretion efficiency (%) Escherichia coli (α)” value was 5.1%. For Behenylamide propyldimethylamine [A-47], the “Secretion efficiency (%) Escherichia coli (α)” value was 2.8%. “Polyoxyethylene(10 mol)cetyl ether [A-65]” was tested, and the “Secretion efficiency (%) Escherichia coli (α)” value was 0.5%. With “EO 10 mol adduct of oleyl alcohol [A-59]” the “Secretion efficiency (%) Escherichia coli (α)” value was 1.1%. “Polyoxyethylene (Mw = 190) stearic acid diester [A-33]” was tested, and the “Secretion efficiency (%) Escherichia coli (α)” value was 5.5%. With “1,2-dodecandiol monooxyethylene adduct [A-4]” the “Secretion efficiency (%) Escherichia coli (α)” value was 90.7%. “Polyoxyethylene (3 mol) lauryl ether acetate [A-24]” was tested, and the “Secretion efficiency (%) Escherichia coli (α)” value was 16.1%. In the case of “Polyoxyethylene (Mw = 200) oleate monoester [A-35]”, the “Secretion efficiency (%) Escherichia coli (α)” value is reported as 5.3%. With CCCCCCCCCCCCCCCCCC[N+](C)(C)CCCCCCCCCCCCCCCCCC.[Cl-] [A-50, Distearyl dimethyl ammonium chloride] the “Secretion efficiency (%) Escherichia coli (α)” value was 2.3%. Sorbitan trioleate [A-49] was tested, and the “Secretion efficiency (%) Escherichia coli (α)” value was 2.4%. Sorbitan monooleate [A-43] was tested, and the “Secretion efficiency (%) Escherichia coli (α)” value was 3.5%. With “EO 10 mol adduct of cured castor oil [A-55]” the “Secretion efficiency (%) Escherichia coli (α)” value was 1.7%. With “Polyethylene glycol monoisostearate [A-40]” the “Secretion efficiency (%) Escherichia coli (α)” value was 4.9%. In the case of CCCCCCCCCCCCCCCCCC[N+](C)(C)C.[Cl-] [A-15, Stearyl trimethyl ammonium chloride], the “Secretion efficiency (%) Escherichia coli (α)” value is reported as 37.3%. For C[C@H](CCC(=O)[O-])[C@H]1CC[C@H]2[C@@H]3[C@H](O)C[C@@H]4C[C@H](O)CC[C@]4(C)[C@H]3C[C@H](O)[C@]12C.[Na+] [A-82, sodium cholate], the “Secretion efficiency (%) Escherichia coli (α)” value was 0.0%. In the case of “Polyoxyethylene(EO 20 mol)sorbitan monostearate [A-72]”, the “Secretion efficiency (%) Escherichia coli (α)” value is reported as 0.0%. CCCCCCCCCCCCOS(=O)(=O)[O-].[Na+] [A-69, Sodium lauryl sulfate] was tested, and the “Secretion efficiency (%) Escherichia coli (α)” value was 0.0%. “Isostearyl alcohol polyoxyethylene (5 mol) adduct sodium ether carboxylate [A-52]” was tested, and the “Secretion efficiency (%) Escherichia coli (α)” value was 2.2%. In the case of “EO 25 mol adduct of cured castor oil [A-44]”, the “Secretion efficiency (%) Escherichia coli (α)” value is reported as 3.0%. For Polyoxyethylene isostearyl ether [A-34], the “Secretion efficiency (%) Escherichia coli (α)” value was 5.3%. For “Polyoxyethylene (Mw = 400) oleate monoester [A-58]”, the “Secretion efficiency (%) Escherichia coli (α)” value was 1.3%. In the case of “Sodium dodecyl diphenyl ether disulfonate [A-8]”, the “Secretion efficiency (%) Escherichia coli (α)” value is reported as 79.1%. With “2-alkyl-N-carboxymethyl-N-hydroxyethyl imidazolinium betaine [A-23]” the “Secretion efficiency (%) Escherichia coli (α)” value was 20.2%. In the case of “Polyoxyethylene(Mw = 600)oleate monoester [A-67]”, the “Secretion efficiency (%) Escherichia coli (α)” value is reported as 0.3%. Palm oil fatty acid sorbitan [A-54] was tested, and the “Secretion efficiency (%) Escherichia coli (α)” value was 1.7%. With “Stearylamine polyoxyethylene (15 mol) adduct [A-26]” the “Secretion efficiency (%) Escherichia coli (α)” value was 11.0%. In the case of “Polyoxyethylene glyceryl triisostearate [A-32]”, the “Secretion efficiency (%) Escherichia coli (α)” value is reported as 5.9%. In the case of “Oleic acid 4.5 mol ester of sorbitol EO 40 mol adduct [A-63]”, the “Secretion efficiency (%) Escherichia coli (α)” value is reported as 0.7%. “Polyoxyethylene (20 mol) sorbitan monooleate [A-37]” was tested, and the “Secretion efficiency (%) Escherichia coli (α)” value was 5.2%. “PO 20 mol and EO 9 mol adduct of ethylhexanol [A-51]” was tested, and the “Secretion efficiency (%) Escherichia coli (α)” value was 2.3%.
